Test results taken from patent publication US20070059265A1, “Benzylidene-1,3-thiazolidine-2,4-dione compounds for stimulating or inducing the growth and/or for reducing the loss and/or for increasing the density of keratin fibers” (L'OREAL, priority 2005, published 2007).

Target: T1, type-1 15-PGDH (Homo sapiens, UniProt P15428)
T1 construct: made in house
T1 sequence (P15428 1-266): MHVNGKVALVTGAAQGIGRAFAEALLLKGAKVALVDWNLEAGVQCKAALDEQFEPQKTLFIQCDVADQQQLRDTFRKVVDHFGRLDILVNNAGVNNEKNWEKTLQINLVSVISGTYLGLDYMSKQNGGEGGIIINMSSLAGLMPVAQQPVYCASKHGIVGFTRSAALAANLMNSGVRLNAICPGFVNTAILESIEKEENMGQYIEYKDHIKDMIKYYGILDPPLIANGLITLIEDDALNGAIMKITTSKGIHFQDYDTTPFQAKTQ
Test: Test on type-1 15-PGDH (spectrophotometric, 340 nm, PGE2 and β-NAD as substrates)
Assay type: biochemical
Settings: 37° C.; for IC50: pH 7.4 Tris buffer, 50 μM Prostaglandin E2, 1.5 mM β-NAD
Procedure: The enzyme 15-PGDH is obtained as described in patent application FR 02/05067 filed in the name of L'Oréal, as a suspension in a medium adjusted to a concentration of 0.3 mg/mL and then blocked at −80° C. For the purposes of the test, this suspension is thawed and stored in ice.
In parallel, a 100 mM, pH 7.4 Tris buffer containing 0.1 mM of dithiothreitol (D5545, Sigma-Aldrich, L'isle D'Abeau Chesne, BP 701, 38297, Saint Quentin Fallavier), 1.5 mM of β-NAD (N6522, Sigma-Aldrich, L'isle D'Abeau Chesne, BP 701, 38297, Saint Quentin Fallavier), and 50 μM of Prostaglandin E2 (P4172, Sigma-Aldrich, L'isle D'Abeau Chesne, BP 701, 38297, Saint Quentin Fallavier) is prepared.
0.965 ml of this buffer (brought to 37° C. beforehand) is introduced into the cuvette of a spectrophotometer (Perkin-Elmer, Lambda 2) thermostatically maintained at 37° C., the measuring wavelength of which is set at 340 nm. 0.035 mL of enzymatic suspension at 37° C. is introduced into the cuvette concomitantly with the recording (corresponding to an increase in the optical density at 340 nm). The maximum reaction rate is recorded.

IC50 | inhibition at 100 µM (at 100 μM of compound, pH 7.4, read-out: % inhibition of the enzymatic activity of 15-PGDH) | SMILES
200 nM | – | CC(C)(C)c1ccc(Oc2cccc(/C=C3\SC(=O)NC3=O)c2)cc1 [Compound 16]
1550 nM | – | O=C1NC(=O)/C(=C/c2ccccc2Oc2ccc(Br)cc2F)S1 [Compound 10]
– | 48% | O=C1NC(=O)/C(=C/c2ccccc2Oc2ccc(F)cc2)S1 [Compound 6]
